Patent US11913952B2, “Methods for detecting peptide/MHC/TCR binding” (Prognosys Biosciences, Inc., priority 2013, dated 2024)
Like-named read-outs stand apart in the source and are kept apart here.

Assays:
HLA-DRB1*01:01 = HLA-DRB1*01:01 (Homo sapiens, UniProt P01903+P01911, A100R/D57E/F55L/F60I/F76Y/I96L/L162R/M171V/P40L/Q125E/R42F/V115G/Y59C); assay: Peptide-MHC binding assay: conjugate incubated with recombinant MHC, captured with anti-HLA-DR antibody (L243) beads, qPCR
HLA-DR3 [1] = tested on: HLA-DR3
HLA-DR1 [2] = target: T1, HLA-DR1 (Homo sapiens, UniProt P01903+P01911, A100R/D57E/F55L/F60I/F76Y/I96L/L162R/M171V/P40L/Q125E/R42F/V115G/Y59C); details: cited from earlier work; for known binding of peptide to HLA-DR1: Sidney et al., 2002
HLA-DR3 [3] = details: cited from earlier work; for known binding of peptide to HLA-DR3: Sidney et al., 2002
HLA-DR1 [4] = target: T1, HLA-DR1; type: binding; parameters: biotin (biotinylated)
HLA-DR2 = HLA-DR2 (Homo sapiens, UniProt P01903+P01911); details: cited from earlier work

YPKYVKQNTLKLAT
enrichment in the DR1 condition compared to beads only (HLA-DRB1*01:01): ~1000 fold
enrichment of conjugate binding to DR1 over beads (HLA-DRB1*01:01): ~100 fold
binding of peptide-cDNA conjugate to MHC molecule (HLA-DR3 [1]): not to the other HLA-DR family member
known binding of peptide to HLA-DR1 (HLA-DR1 [2]): bind
known affinity of peptide for the HLA-DR1 molecule (HLA-DR1 [2]): high
known binding of peptide to HLA-DRB1*01:01 (HLA-DR1 [2]): bind
known binding of peptide to HLA-DR3 (HLA-DR3 [3]): without cross-binding
binding of peptide-cDNA conjugate to MHC molecule (HLA-DR1 [4]): bound to the expected MHC molecule
profile of binding to HLA-DR1 (HLA-DR1 [4]): high

MBP(148-162): peptide of human myelin basic protein, residues 148-162 (YLATASTMDHARHGF; UniProt P02686 148-162, looked up, fragment)
affinity of peptide for purified DR2 (HLA-DR2): lower but significant

YPKAVKQNTLKLAT [YP (Y4A)]
known affinity of peptide for the HLA-DR1 molecule (HLA-DR1 [2]): low
profile of binding to HLA-DR1 (HLA-DR1 [4]; conjugates incubated and detected as a mixture (3-plex), qPCR): low
profile of binding to HLA-DR1 (HLA-DR1 [4]; conjugates present individually (1-plex), qPCR): low

YKTIAFDEEARR
enrichment in the DR1 condition compared to beads only (HLA-DRB1*01:01): no such enrichment
binding of peptide-cDNA conjugate to MHC molecule (HLA-DR3 [1]): bound to the expected MHC molecule
enrichment of signal in the DR1 condition compared to beads only (DR1): ~1000 fold
known binding of peptide to HLA-DR1 (HLA-DR1 [2]): without cross-binding
known binding of peptide to HLA-DRB1*01:01 (HLA-DR1 [2]): not bind
known binding of peptide to HLA-DR3 (HLA-DR3 [3]): bind
known binding of peptide to HLA-DRB1*03:01 (HLA-DR3 [3]): bind
binding of peptide-cDNA conjugate to MHC molecule (HLA-DR1 [4]; biotinylated HLA-DR1, overnight incubation, gel electrophoresis and qPCR readouts): not to the other HLA-DR family member

MBP(85-99): peptide of human myelin basic protein, residues 85-99 (PGSRPHLIRLFSRDA; UniProt P02686 85-99, looked up, fragment)
affinity of peptide for purified DR2 (HLA-DR2): high affinity
